What all share (assay): kinase profiling panel
What all share (format): biochemical
Details in all cases: read-out: % Activity Remaining

One test deals with T1, CHK1 (Homo sapiens, UniProt O14757).
T1 sequence (O14757 1-476): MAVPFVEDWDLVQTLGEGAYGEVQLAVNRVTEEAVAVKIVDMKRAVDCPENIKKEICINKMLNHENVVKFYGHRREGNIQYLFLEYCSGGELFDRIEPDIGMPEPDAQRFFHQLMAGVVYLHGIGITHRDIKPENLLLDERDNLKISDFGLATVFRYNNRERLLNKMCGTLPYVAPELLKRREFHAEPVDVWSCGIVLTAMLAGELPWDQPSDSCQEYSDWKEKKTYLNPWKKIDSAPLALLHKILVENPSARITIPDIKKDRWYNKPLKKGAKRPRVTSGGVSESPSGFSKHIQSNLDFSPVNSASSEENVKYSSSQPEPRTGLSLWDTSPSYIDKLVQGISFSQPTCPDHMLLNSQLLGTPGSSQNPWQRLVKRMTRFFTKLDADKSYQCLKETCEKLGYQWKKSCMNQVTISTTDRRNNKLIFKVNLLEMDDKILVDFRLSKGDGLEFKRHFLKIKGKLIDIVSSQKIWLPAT
The source says:
(§1) Protein kinase profiling against a Dundee panel of 140 protein kinases was undertaken at the International Centre for Protein Kinase Profiling. The result for each kinase was presented as a mean kinase activity of the reaction taken in triplicate relative to a control sample treated with DMSO. Assay conditions and abbreviations are available at http://www.kinase-screen.mrc.ac.uk.

Another test concerns the target CK1 delta (Homo sapiens, UniProt P48730).
Description: as §1

A further test has as its target HER4 (Homo sapiens, UniProt Q15303).
Description: as §1

The target of a further test is MINK1 (Homo sapiens, UniProt Q8N4C8).
Description: as §1

Another test concerns the target MPSK1 (Homo sapiens, UniProt O75716).
Description: as §1

A further test addresses PIM2 (Homo sapiens, UniProt Q9P1W9).
Description: as §1

The target in another test is SIK3 (Homo sapiens, UniProt Q9Y2K2).
Description: as §1

For the next test, the target named is T2, ULK2 (Homo sapiens, UniProt Q8IYT8).
T2 sequence (Q8IYT8 1-1036): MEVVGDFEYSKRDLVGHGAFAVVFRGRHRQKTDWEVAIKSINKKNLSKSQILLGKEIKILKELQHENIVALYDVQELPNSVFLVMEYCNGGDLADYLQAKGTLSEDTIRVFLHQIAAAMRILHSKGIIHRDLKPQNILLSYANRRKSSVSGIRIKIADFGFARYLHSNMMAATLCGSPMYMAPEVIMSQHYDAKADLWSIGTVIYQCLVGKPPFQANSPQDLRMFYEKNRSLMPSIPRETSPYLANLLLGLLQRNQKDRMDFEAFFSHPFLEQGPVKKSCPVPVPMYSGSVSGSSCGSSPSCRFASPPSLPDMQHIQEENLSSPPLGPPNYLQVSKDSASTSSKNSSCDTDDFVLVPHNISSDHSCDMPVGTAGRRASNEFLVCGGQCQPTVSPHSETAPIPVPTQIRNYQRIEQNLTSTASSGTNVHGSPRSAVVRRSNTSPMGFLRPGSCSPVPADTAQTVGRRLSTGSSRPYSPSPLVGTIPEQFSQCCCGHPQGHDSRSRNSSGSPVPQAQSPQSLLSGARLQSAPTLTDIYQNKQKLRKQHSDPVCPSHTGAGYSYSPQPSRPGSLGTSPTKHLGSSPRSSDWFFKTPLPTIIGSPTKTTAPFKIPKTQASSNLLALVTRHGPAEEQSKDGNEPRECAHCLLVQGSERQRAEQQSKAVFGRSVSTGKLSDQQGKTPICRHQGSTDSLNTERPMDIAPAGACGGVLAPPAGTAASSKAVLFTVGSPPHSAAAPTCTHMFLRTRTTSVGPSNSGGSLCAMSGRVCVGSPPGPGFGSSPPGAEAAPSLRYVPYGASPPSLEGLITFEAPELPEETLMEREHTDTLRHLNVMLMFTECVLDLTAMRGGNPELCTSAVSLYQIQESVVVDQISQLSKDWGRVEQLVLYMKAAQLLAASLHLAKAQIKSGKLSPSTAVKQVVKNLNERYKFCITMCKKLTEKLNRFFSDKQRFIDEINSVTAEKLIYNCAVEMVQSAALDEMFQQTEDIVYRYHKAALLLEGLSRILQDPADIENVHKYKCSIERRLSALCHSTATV
Description: as §1

Read-outs that look alike come from different tables or passages of the source.

In general, remaining activity refers to the signal under treatment as a percentage of the control signal.

Chain of SIK3 (Q9Y2K2 whole entry): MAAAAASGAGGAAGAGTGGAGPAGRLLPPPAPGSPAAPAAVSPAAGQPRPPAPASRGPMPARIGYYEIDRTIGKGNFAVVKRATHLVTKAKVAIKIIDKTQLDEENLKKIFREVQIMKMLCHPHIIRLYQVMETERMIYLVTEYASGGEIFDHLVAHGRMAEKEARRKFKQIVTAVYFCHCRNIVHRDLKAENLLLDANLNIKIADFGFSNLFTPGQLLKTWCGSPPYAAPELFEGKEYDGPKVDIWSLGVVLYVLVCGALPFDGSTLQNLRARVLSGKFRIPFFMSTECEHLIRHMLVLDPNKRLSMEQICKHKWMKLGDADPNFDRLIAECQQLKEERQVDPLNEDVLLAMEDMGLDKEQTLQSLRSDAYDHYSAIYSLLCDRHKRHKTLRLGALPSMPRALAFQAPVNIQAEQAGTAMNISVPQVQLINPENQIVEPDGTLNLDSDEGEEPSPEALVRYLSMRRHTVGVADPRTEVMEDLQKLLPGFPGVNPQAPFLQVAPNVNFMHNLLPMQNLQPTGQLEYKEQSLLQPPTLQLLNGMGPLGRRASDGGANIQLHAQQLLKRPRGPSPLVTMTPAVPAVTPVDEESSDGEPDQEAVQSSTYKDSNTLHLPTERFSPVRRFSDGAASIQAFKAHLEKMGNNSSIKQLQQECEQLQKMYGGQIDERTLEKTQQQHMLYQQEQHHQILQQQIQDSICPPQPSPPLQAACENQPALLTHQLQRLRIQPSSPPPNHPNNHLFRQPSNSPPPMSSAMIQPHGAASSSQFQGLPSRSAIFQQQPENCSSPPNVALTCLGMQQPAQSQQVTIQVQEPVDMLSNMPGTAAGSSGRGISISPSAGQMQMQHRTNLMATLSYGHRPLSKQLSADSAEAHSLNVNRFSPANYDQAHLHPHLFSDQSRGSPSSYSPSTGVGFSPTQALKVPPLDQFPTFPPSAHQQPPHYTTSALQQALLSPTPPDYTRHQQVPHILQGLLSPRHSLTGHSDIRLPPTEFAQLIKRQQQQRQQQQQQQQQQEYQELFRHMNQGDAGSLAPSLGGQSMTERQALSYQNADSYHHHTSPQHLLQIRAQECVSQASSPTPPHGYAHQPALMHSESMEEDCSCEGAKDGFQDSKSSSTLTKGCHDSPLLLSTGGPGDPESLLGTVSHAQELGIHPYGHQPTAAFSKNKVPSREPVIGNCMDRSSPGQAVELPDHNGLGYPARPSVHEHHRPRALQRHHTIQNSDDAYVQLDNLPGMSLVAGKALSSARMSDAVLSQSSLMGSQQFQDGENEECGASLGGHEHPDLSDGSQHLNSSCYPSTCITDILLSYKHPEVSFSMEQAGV
Chain of PIM2 (Q9P1W9 whole entry): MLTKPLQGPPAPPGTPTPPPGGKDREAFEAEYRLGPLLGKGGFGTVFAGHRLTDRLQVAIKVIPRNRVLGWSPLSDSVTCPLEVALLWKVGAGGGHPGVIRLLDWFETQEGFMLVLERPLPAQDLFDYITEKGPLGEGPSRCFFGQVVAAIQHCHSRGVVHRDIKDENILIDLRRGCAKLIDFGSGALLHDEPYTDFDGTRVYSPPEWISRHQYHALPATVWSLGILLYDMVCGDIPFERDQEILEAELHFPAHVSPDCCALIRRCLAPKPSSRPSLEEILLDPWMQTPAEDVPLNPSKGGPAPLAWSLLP
Chain of HER4 (Q15303 26-1308): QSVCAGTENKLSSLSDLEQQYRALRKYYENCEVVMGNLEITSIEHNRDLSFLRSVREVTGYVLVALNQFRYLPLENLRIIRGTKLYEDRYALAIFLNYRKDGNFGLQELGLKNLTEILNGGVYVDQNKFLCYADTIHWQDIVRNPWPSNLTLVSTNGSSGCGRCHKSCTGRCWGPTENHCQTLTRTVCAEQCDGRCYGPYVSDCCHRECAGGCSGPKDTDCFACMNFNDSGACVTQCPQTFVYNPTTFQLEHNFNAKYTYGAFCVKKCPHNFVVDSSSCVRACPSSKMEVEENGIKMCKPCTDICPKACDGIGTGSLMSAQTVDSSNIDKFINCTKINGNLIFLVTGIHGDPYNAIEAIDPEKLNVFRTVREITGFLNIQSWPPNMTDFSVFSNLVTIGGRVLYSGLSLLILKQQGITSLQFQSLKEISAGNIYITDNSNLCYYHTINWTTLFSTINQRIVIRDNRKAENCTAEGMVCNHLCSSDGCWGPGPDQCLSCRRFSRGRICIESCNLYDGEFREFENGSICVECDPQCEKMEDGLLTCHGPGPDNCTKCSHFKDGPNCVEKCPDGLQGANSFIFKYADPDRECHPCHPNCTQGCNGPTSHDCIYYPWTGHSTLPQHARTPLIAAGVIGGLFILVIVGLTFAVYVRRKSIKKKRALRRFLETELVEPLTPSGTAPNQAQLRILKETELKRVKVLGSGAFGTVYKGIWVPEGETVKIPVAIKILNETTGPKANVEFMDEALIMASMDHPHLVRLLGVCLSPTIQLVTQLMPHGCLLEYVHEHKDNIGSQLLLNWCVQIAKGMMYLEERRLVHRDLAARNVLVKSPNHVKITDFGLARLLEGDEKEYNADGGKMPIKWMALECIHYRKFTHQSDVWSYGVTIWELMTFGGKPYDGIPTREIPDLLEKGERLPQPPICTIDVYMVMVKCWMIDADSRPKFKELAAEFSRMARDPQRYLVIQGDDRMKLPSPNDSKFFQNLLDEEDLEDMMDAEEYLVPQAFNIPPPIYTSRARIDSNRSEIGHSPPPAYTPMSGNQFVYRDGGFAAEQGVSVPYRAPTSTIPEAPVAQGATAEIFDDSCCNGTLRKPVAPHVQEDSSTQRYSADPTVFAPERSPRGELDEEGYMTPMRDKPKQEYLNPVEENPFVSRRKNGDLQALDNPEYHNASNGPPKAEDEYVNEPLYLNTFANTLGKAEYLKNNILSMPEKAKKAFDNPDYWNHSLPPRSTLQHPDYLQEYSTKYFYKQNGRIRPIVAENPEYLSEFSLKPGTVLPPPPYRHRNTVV
Chain of MINK1 (Q8N4C8 whole entry): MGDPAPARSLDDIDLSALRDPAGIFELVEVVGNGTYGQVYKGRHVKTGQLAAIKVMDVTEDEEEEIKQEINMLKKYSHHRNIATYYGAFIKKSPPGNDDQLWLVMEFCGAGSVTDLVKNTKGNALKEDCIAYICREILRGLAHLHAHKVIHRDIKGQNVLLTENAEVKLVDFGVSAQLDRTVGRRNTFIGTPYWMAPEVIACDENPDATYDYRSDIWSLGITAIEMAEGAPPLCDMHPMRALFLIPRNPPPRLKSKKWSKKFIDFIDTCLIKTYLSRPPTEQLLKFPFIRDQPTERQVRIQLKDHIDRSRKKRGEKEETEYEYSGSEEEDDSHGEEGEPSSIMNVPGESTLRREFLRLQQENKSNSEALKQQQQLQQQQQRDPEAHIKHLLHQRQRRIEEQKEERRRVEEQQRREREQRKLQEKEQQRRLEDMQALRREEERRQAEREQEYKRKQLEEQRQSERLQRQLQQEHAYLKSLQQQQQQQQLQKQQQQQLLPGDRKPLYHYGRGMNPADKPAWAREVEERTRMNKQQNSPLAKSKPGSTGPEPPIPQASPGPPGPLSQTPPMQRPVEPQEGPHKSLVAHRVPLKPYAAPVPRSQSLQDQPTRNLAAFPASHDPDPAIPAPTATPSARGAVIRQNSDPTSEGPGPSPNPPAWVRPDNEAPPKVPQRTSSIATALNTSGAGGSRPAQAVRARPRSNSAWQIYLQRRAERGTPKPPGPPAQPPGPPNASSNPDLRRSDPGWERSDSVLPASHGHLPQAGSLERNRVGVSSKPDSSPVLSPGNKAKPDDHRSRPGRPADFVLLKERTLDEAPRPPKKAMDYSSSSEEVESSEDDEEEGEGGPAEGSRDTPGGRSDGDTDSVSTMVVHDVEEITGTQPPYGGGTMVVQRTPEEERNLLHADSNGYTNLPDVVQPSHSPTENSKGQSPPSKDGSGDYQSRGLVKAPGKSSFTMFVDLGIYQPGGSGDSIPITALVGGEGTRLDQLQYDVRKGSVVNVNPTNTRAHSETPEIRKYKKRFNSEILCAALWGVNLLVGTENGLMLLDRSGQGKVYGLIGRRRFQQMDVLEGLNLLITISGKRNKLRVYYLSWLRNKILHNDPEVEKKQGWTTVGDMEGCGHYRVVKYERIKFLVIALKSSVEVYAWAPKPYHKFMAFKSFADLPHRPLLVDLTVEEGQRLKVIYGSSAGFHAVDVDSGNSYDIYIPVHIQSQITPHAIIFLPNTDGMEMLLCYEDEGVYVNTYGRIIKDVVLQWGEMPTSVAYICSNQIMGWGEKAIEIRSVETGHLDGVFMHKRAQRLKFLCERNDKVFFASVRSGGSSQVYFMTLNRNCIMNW
Chain of MPSK1 (O75716 whole entry): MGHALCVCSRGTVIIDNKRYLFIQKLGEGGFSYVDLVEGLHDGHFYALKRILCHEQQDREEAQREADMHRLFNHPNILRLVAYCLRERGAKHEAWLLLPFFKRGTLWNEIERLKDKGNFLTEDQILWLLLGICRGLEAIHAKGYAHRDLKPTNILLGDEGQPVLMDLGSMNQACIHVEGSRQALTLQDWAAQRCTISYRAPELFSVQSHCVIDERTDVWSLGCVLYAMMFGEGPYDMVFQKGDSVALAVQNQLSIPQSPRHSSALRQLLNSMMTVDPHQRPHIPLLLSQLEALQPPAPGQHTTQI
Chain of CK1 delta (P48730 whole entry): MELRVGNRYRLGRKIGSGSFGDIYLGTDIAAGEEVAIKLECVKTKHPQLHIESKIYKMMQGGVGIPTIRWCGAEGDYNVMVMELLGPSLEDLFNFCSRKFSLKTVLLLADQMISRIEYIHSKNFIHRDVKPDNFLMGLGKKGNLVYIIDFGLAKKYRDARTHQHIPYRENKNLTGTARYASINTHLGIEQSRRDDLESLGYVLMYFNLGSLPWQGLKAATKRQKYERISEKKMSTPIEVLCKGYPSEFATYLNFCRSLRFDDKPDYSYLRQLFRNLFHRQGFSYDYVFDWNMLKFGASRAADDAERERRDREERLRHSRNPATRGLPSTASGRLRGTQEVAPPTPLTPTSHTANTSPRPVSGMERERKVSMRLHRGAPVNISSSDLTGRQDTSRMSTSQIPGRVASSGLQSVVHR

Turning to `COc1ccc(Cl)c(S(=O)(=O)Nc2ccc(-c3nc(OC[C@H]4CNCCO4)c4c(C)n[nH]c4n3)cc2)c1` [290-R, reference compound], the remaining activity at 1 µM worked out at 95% at CHK1; 65% on CK1 delta; 102% at HER4; 101% at MINK1; 82% at MPSK1; 105% on PIM2. Besides, the results for the remaining activity at 1 µM at SIK3 and on ULK2 were 102% and 46%, respectively.
On to `Cc1ccc(F)c(S(=O)(=O)Nc2ccc(-c3nc(OC[C@H]4CNCCO4)c4cn[nH]c4n3)cc2)c1` [308-R, reference compound], for which the remaining activity at 1 µM at CHK1 turned out to be 109%; at CK1 delta, 121%; at HER4 it was 67%; at MINK1 it was 83%; on MPSK1 it was 116%; at PIM2 it was 127%. For the same compound, the remaining activity at 1 µM at SIK3 turned out to be 69%; at ULK2 it was 59%.
For the compound `Cc1ccc(F)c(S(=O)(=O)Nc2ccc(-c3nc(OC[C@H]4CN(CCCCCCOCCOCCOCC(=O)N[C@H](C(=O)N5C[C@H](O)C[C@H]5C(=O)NCc5ccc(-c6scnc6C)cc5)C(C)(C)C)CCO4)c4cn[nH]c4n3)cc2)c1` [SGK3-PROTAC1], the remaining activity at 1 µM at CHK1 (1 µM) came out at 111%; at CK1 delta (1 µM), 95%; on HER4 (1 µM), 92%; at MINK1 (1 µM), 115%; at MPSK1 (1 µM), 127%; on PIM2 (1 µM), 98%. Besides, the figures for the remaining activity at 1 µM at SIK3 (1 µM) and at ULK2 (1 µM) were 79% and 103%, respectively.
Consider `Cc1ccc(F)c(S(=O)(=O)Nc2ccc(-c3nc(OC[C@H]4CN(CCCCCCOCCOCCOCC(=O)N[C@H](C(=O)N5C[C@@H](O)C[C@H]5C(=O)NCc5ccc(-c6scnc6C)cc5)C(C)(C)C)CCO4)c4cn[nH]c4n3)cc2)c1` [cisSGK3-PROTAC1], for which the remaining activity at 1 µM on CHK1 (1 µM) stood at 126%; on CK1 delta (1 µM) it was 108%; on HER4 (1 µM) it was 103%; on MINK1 (1 µM), 116%; at MPSK1 (1 µM), 139%; on PIM2 (1 µM), 105%. In addition, the remaining activity at 1 µM at SIK3 (1 µM) and at ULK2 (1 µM) was 117% each time.
